US20090209460A1, “COMPOSITIONS AND METHODS FOR TREATING OBESITY AND RELATED METABOLIC DISORDERS” (Amylin Pharmaceuticals, Inc., priority 2005, published 2009)
Residues, ends and D or L forms follow the SMILES beside them.

Tests used:
[1] = body weight and food intake in mice with diet induced obesity (mouse DIO), osmotic pump; format: in vivo
Method: The effect of FN38 and related compounds on body weight and food intake in obese subjects was investigated. Mice having diet induced obesity (DIO) were used. All in vivo tests were performed with peripheral injections of peptide. […] 4-week-old male C57BL/6 mice were group housed with water and a standard pelleted mouse chow diet available ad libitum, except as noted, and were maintained on a on a high fat diet (58% kcal from fat) for 4 weeks prior to the experiment. At the end of fattening period, osmotic pumps were implanted interscapularly under anesthesia. Mice received pumps continuously delivering vehicle (50% DMSO in water or saline) or polypeptide at the dose indicated. Food intake and body weight measurements were obtained weekly.

NIH/Swiss mice = experiment: acute food intake assay, lean overnight-fasted NIH/Swiss mice, intraperitoneal injection; format: in vivo, mouse; conditions: for Food Intake Inhibition: mouse assay, dose of 200 mg/kg, measured at 60 minutes
Method: The effect of NMX Peptides, FNX Peptides or NMX Receptor agonists on food intake when systemically administered was investigated using an acute food intake assay. This assay measured food consumption in lean subjects. Lean, group-housed, overnight-fasted NIH/Swiss mice. All in vivo tests were performed with peripheral injections of peptide. […] The dose-response data are presented herein. The protocol is described below. Female NIH/Swiss mice (8-24 weeks old) were group housed with a 12:12 hour light:dark cycle, with lights on at 0300. Water and a standard pelleted mouse chow diet are available ad libitum, except as noted. Animals are fasted starting at approximately 1530 hrs, 1 day prior to experiment. At time=0 min, all animals are given an intraperitoneal injection of vehicle or polypeptide in a volume of 200 uL/mouse and immediately given a pre-weighed amount (10-15 g) of the standard chow. Food is removed and weighed at 30, 60, and 120 minutes to determine the amount of food consumed. The effects of treatment on food intake are expressed as % change relative to control.

[2] = brush border membrane (BBM) stability assay; format: in vitro ADME, human; conditions: brush border membrane extract (e.g. kidney); percent compound remaining after a 5 hour incubation, human brush border membrane assay; read-out: hBBM
Method: Some exemplary NMX Peptides and FNX Peptides were tested for stability in a brush border membrane (BBM) assay as described herein. To determine the enzymatic stability of peptide hormones peptides are incubated with a preparation of human brush border membranes extract (e.g., kidney), and the stability of the peptide is determined by measuring concentration of the intact peptide at specific intervals. The brush border membrane extract contains dipeptidyl peptidase IV (DPP-IV), neutral endopeptidases, peptidyl-dipeptidase A, carboxypeptidases and aminopeptidases. These are the primary enzymes that degrade peptides in vivo and are found in the kidneys, liver, lungs and pancreas. Resistance against these human proteases would increase peptide half-life. In the BBM assay test peptide was subjected to digestion over a period of five (5) hours with human brush border membrane extracts, e.g. kidney, at 37° C. At desired timepoints digestion was stopped by addition of quench solution, typically 50% ACN, 1% FA. After centrifugation to remove membrane debris, supernatant was subjected to mass spectrometry using a selected ion scan for the intact molecule of interest. Values are expressed as a percent of stable. A value of at least 80 or greater is regarded as an extremely stable molecule. A value of at least 70 or greater is a molecule with significant stability.

Structure (SMILES) | Food Intake Inhibition (NIH/Swiss mice) | remaining at 5 h [2] | also measured
CC[C@H](C)[C@H](NC(=O)[C@@H](NC(=O)CNC(=O)CNC(=O)[C@@H]1CCCN1C(=O)[C@@H](NC(=O)[C@H](CCC(N)=O)NC(=O)[C@@H](NC(=O)[C@H](CCC(=O)O)NC(=O)[C@H](CCC(=O)O)NC(=O)[C@H](CC(=O)O)NC(=O)[C@@H](N)CO)C(C)C)C(C)C)C(C)C)C(=O)N[C@@H](CO)C(=O)N[C@@H](CC(N)=O)C(=O)NCC(=O)N[C@@H](Cc1ccc(O)cc1)C(=O)N[C@@H](Cc1ccccc1)C(=O)N[C@@H](CC(C)C)C(=O)N[C@@H](Cc1ccccc1)C(=O)N[C@@H](CCCNC(=N)N)C(=O)N1CCC[C@H]1C(=O)N[C@@H](CCCNC(=N)N)C(=O)N[C@@H](CC(N)=O)C(N)=O [Compound 163452, reference compound] (H-SDEEVQVPGGVISNGYFLFRPRN-NH2; N-terminus assumed) | – | – | body weight gain and food intake in the DIO assay ([1]; 75 nmol/kg/day): decreased body weight gain and food intake; long acting effect in mouse DIO ([1]; mouse DIO): did not have a long acting effect; d 14 BWt loss ([1]; mouse DIO, day 14): 1.5%; reduction of food intake (NIH/Swiss mice; administered systemically (i.p. to mice), dose and time not stated): up to 95%; FI (60′, 200) (NIH/Swiss mice; food intake, % change relative to control, 60 min, dose 200): −88%; ED50 at t = 60 (NIH/Swiss mice; food intake, t = 60): 0.022 mg/kg; ED50 for effect on food intake (NIH/Swiss mice; over 30 min, i.p., mice): 9.0 nmol/kg
CC(C)C[C@H](NC(=O)[C@H](CCCCN)NC(=O)[C@H](CCC(N)=O)NC(=O)[C@@H](NC(=O)[C@H](CCCCN)NC(=O)[C@H](CO)NC(=O)[C@@H](N)Cc1ccc(O)cc1)[C@@H](C)O)C(=O)NCC(=O)N[C@@H](CCCCN)C(=O)N[C@@H](CO)C(=O)N[C@@H](CC(N)=O)C(=O)N[C@H](C(=O)N[C@H](C(=O)N[C@@H](CCC(=O)O)C(=O)N[C@@H](CCC(=O)O)C(=O)N[C@@H](CC(C)C)C(=O)N[C@@H](CCC(N)=O)C(=O)N[C@@H](CO)C(=O)N1CCC[C@H]1C(=O)N[C@@H](Cc1ccccc1)C(=O)N[C@@H](C)C(=O)N[C@@H](CO)C(=O)N[C@@H](CCC(N)=O)C(=O)N[C@@H](CO)C(=O)N[C@@H](CCCNC(=N)N)C(=O)NCC(=O)N[C@@H](Cc1ccc(O)cc1)C(=O)N[C@@H](Cc1ccccc1)C(=O)N[C@@H](CC(C)C)C(=O)N[C@@H](Cc1ccccc1)C(=O)N[C@@H](CCCNC(=N)N)C(=O)N1CCC[C@H]1C(=O)N[C@@H](CCCNC(=N)N)C(=O)N[C@@H](CC(N)=O)C(N)=O)C(C)C)C(C)C [Des-(Phe1,Leu2,Phe3,His4)FN38] (H-YSKTQKLGKSNVVEELQSPFASQSRGYFLFRPRN-NH2; N-terminus assumed) | −58% | 41% | –
CC(C)C[C@H](NC(=O)[C@H](CCC(=O)O)NC(=O)[C@H](CCC(=O)O)NC(=O)[C@@H](NC(=O)[C@@H](NC(=O)[C@H](CC(N)=O)NC(=O)[C@H](CO)NC(=O)[C@H](CCCCN)NC(=O)CNC(=O)[C@H](CC(C)C)NC(=O)[C@@H](N)CCCCN)C(C)C)C(C)C)C(=O)N[C@@H](CCC(N)=O)C(=O)N[C@@H](CO)C(=O)N1CCC[C@H]1C(=O)N[C@@H](Cc1ccccc1)C(=O)N[C@@H](C)C(=O)N[C@@H](CO)C(=O)N[C@@H](CCC(N)=O)C(=O)N[C@@H](CO)C(=O)N[C@@H](CCCNC(=N)N)C(=O)NCC(=O)N[C@@H](Cc1ccc(O)cc1)C(=O)N[C@@H](Cc1ccccc1)C(=O)N[C@@H](CC(C)C)C(=O)N[C@@H](Cc1ccccc1)C(=O)N[C@@H](CCCNC(=N)N)C(=O)N1CCC[C@H]1C(=O)N[C@@H](CCCNC(=N)N)C(=O)N[C@@H](CC(N)=O)C(N)=O [Des-(Phe1-Gln9)FN38] (H-KLGKSNVVEELQSPFASQSRGYFLFRPRN-NH2; N-terminus assumed) | −70% | 55% | –
CC(C)C[C@H](NC(=O)[C@H](CCCCN)NC(=O)[C@H](CCC(N)=O)NC(=O)[C@@H](NC(=O)[C@H](CCCCN)NC(=O)[C@H](CO)NC(=O)[C@H](Cc1ccc(O)cc1)NC(=O)[C@H](Cc1c[nH]cn1)NC(=O)[C@H](Cc1ccccc1)NC(=O)[C@H](CC(C)C)NC(=O)[C@@H](N)Cc1ccccc1)[C@@H](C)O)C(=O)NCC(=O)N[C@@H](CCCCN)C(=O)N[C@@H](CO)C(=O)N[C@@H](CC(N)=O)C(=O)N[C@H](C(=O)N[C@H](C(=O)N[C@@H](CCC(=O)O)C(=O)N[C@@H](CCC(=O)O)C(=O)N[C@@H](CC(C)C)C(=O)N[C@@H](CCC(N)=O)C(=O)N[C@@H](CO)C(=O)N1CCC[C@H]1C(=O)N[C@@H](CO)C(=O)N[C@@H](CCCNC(=N)N)C(=O)NCC(=O)N[C@@H](Cc1ccc(O)cc1)C(=O)N[C@@H](Cc1ccccc1)C(=O)N[C@@H](CC(C)C)C(=O)N[C@@H](Cc1ccccc1)C(=O)N[C@@H](CCCNC(=N)N)C(=O)N1CCC[C@H]1C(=O)N[C@@H](CCCNC(=N)N)C(=O)N[C@@H](CC(N)=O)C(N)=O)C(C)C)C(C)C [Des-(Phe24,Ala25,Ser26,Gln27)-FN38] (H-FLFHYSKTQKLGKSNVVEELQSPSRGYFLFRPRN-NH2; N-terminus assumed) | −83% | 61% | –
CC(C)C[C@H](NC(=O)[C@H](CCCCN)NC(=O)[C@H](Cc1ccc(O)cc1)NC(=O)[C@H](Cc1c[nH]cn1)NC(=O)[C@H](Cc1ccccc1)NC(=O)[C@H](CC(C)C)NC(=O)[C@@H](N)Cc1ccccc1)C(=O)NCC(=O)N[C@@H](CCCCN)C(=O)N[C@@H](CO)C(=O)N[C@@H](CC(N)=O)C(=O)N[C@H](C(=O)N[C@H](C(=O)N[C@@H](CCC(=O)O)C(=O)N[C@@H](CCC(=O)O)C(=O)N[C@@H](CC(C)C)C(=O)N[C@@H](CCC(N)=O)C(=O)N[C@@H](CO)C(=O)N1CCC[C@H]1C(=O)N[C@@H](Cc1ccccc1)C(=O)N[C@@H](C)C(=O)N[C@@H](CO)C(=O)N[C@@H](CCC(N)=O)C(=O)N[C@@H](CO)C(=O)N[C@@H](CCCNC(=N)N)C(=O)NCC(=O)N[C@@H](Cc1ccc(O)cc1)C(=O)N[C@@H](Cc1ccccc1)C(=O)N[C@@H](CC(C)C)C(=O)N[C@@H](Cc1ccccc1)C(=O)N[C@@H](CCCNC(=N)N)C(=O)N1CCC[C@H]1C(=O)N[C@@H](CCCNC(=N)N)C(=O)N[C@@H](CC(N)=O)C(N)=O)C(C)C)C(C)C [Des-(Ser6,Lys7,Thr8,Gln9)FN38] (H-FLFHYKLGKSNVVEELQSPFASQSRGYFLFRPRN-NH2; N-terminus assumed) | −72% | 28% | –
CC(C)C[C@H](NC(=O)[C@H](CCCCN)NC(=O)[C@H](CCC(N)=O)NC(=O)[C@@H](NC(=O)[C@H](CCCCN)NC(=O)[C@H](CO)NC(=O)[C@H](Cc1ccc(O)cc1)NC(=O)[C@H](Cc1c[nH]cn1)NC(=O)[C@H](Cc1ccccc1)NC(=O)[C@H](CC(C)C)NC(=O)[C@@H](N)Cc1ccccc1)[C@@H](C)O)C(=O)NCC(=O)N[C@@H](CCCCN)C(=O)N[C@@H](CO)C(=O)N[C@@H](CC(N)=O)C(=O)N[C@@H](CCC(=O)O)C(=O)N[C@@H](CCC(=O)O)C(=O)N[C@@H](CC(C)C)C(=O)N[C@@H](CCC(N)=O)C(=O)N[C@@H](CO)C(=O)N1CCC[C@H]1C(=O)N[C@@H](Cc1ccccc1)C(=O)N[C@@H](C)C(=O)N[C@@H](CO)C(=O)N[C@@H](CCC(N)=O)C(=O)N[C@@H](CO)C(=O)N[C@@H](CCCNC(=N)N)C(=O)NCC(=O)N[C@@H](Cc1ccc(O)cc1)C(=O)N[C@@H](Cc1ccccc1)C(=O)N[C@@H](CC(C)C)C(=O)N[C@@H](Cc1ccccc1)C(=O)N[C@@H](CCCNC(=N)N)C(=O)N1CCC[C@H]1C(=O)N[C@@H](CCCNC(=N)N)C(=O)N[C@@H](CC(N)=O)C(N)=O [Des-Val16,Val17-FN38] (H-FLFHYSKTQKLGKSNEELQSPFASQSRGYFLFRPRN-NH2; N-terminus assumed) | −60% | 73% | –
